{
  "source": "patent US12714696B2",
  "about": "“Low dose fluralaner compositions for protection against parasitic invertebrate pest” (VIRBAC, priority 2019, dated 2026)",
  "assay": "Pharmacokinetics after repeated oral administration of 35 μg/kg of fluralaner in dogs after feeding",
  "assay_type": "in vivo, beagle dogs",
  "settings": "oral 35 μg/kg Days 0-3, dogs; for concentration at 480 h / concentration at 576 h / concentration at 672 h / AUC(0-inf) / AUC(0-t) / Cmax / half-life: beagle, dog, plasma, po; for concentration at 480 h / concentration at 576 h / concentration at 672 h: 35 μg/kg; for AUC(0-inf) / AUC(0-t) / Cmax / half-life: 35 ug/kg",
  "description": "The first objective of the study was to obtain the pharmacokinetic parameters after repeated oral administration of 35 μg/kg of fluralaner in dogs, 30 to 35 minutes after feeding.\nThe second objective was to investigate the pharmacodynamics between the fluralaner plasmatic dose and the effectiveness against fleas. • IVP: Investigational Veterinary Product, is pure Fluralaner+DMSO (35 μg/kg on Days 0 to 3 (0.35 mL/kg)) • Control product is DMSO (0.35 mL/kg on Days 0 to 3)\nOn Days 0, 1, 2 and 3, all dogs assigned to group 2 received the Investigational Veterinary Product. On Days 0 to 3 all dogs in group 1 received the control product at a volume equal to the dogs in group 2. Dogs assigned to group 1 received the control product and served as Placebo controls. The quantity of Investigational Veterinary Product and control product administered was calculated according to the dog's individual body weight measured on Day −1.\nBlood samples were taken from all dogs prior to Investigational Veterinary Product treatment or control product administration on Day 0 and on Days 1 (+24 hours), 2 (+48 hours), 3 (+72 hours), 4 (+96 hours), 5 (+120 hours), 10 (+240 hours), 15 (+360 hours), 20 (+480 hours), 24 (+576 hours) and Day 28 (+672 hours).\nOn days of administration of pre-Investigational Veterinary Product or Control Product, dogs were fed (the same dog food) approximately half of their normal daily ration 30 minutes to 35 minutes prior to administration. Food consumed by the time of administration was calculated and recorded. The remainder of their normal daily ration was fed immediately after administration.\nThe PK parameters of fluralaner were calculated using a non-compartmental approach.\nThe following rules were applied for the calculation of the PK parameters: • All the plasma concentrations, validated by the bioanalytical laboratory, were used for the PK analysis. • The actual blood sampling times were used throughout. • Concentrations below the Limit of Quantification (LOQ) value were considered as zero from time zero (pre-dose) up to the time at which the first quantifiable concentration above the LOQ value was observed. Concentrations below the LOQ value between two quantifiable concentrations were considered as missing. Trailing concentrations below the LOQ value were not used in calculations.\nCmax the observed maximum concentration in plasma measured after dosing.\ntmax the time at which Cmax was apparent.\nλz the terminal rate constant (λz) was estimated by log-linear regression analysis on data points visually assessed, to be on the terminal log-linear phase. For the slope of the terminal elimination phase to be accepted as reliable, the following criteria were used: • the terminal data points were apparently randomly distributed about a single straight line (on visual inspection), • a minimum of three data points, including the last measured data point and excluding Cmax, were available for the regression.\nt1/2 the terminal plasma half-life (t1/2) was calculated according to the following equation: […]\nAUC0-t the area under the concentration-time curve from time zero (pre-dose) to the time of last quantifiable concentration (t) was calculated using a linear trapezoidal method.\n[AUC0-∞=AUC0-t+(Ct/λz)], where Ct was the observed concentration of drug for the last sample on the PK profile in which the drug was detected, and λz was as defined above.\nThe extrapolated area under the curve, expressed as a percentage of the total area, AUCinf, was also calculated as: Area Extra (%)=(AUC0-∞−AUC0-t)/AUC0-∞*100%.",
  "key": {"[1]": {"settings": "n=6, read-out: fluralaner concentration levels, Mean"}, "[2]": {"settings": "n=6, read-out: fluralaner concentration levels, Median"}, "[3]": {"settings": "n=6, read-out: fluralaner concentration levels, Minimum"}, "[4]": {"settings": "read-out: fluralaner concentration levels, individual animal"}, "[5]": {"settings": "n=6, read-out: fluralaner concentration levels, GeoMean"}, "[6]": {"settings": "n=6, read-out: fluralaner concentration levels, Maximum"}},
  "note": "Where “and” joins values, the source holds several entries; their conditions need not be identical. Identical values can stand only once. Like-named read-outs stand apart in the source and are kept apart here.",
  "data": [
    {"smiles": "Cc1cc(C2=NOC(c3cc(Cl)cc(Cl)c3)(C(F)(F)F)C2)ccc1C(=O)NCC(=O)NCC(F)(F)F", "note": "(stereo not drawn) [fluralaner, Fluralaner]", "values": [
      {"measurement": "concentration at 480 h", "setting": "[1]", "result": 22.4, "unit": "ng/mL"},
      {"measurement": "concentration at 480 h", "setting": "[2]", "result": 23.2, "unit": "ng/mL"},
      {"measurement": "concentration at 480 h", "setting": "[3]", "result": 17.1, "unit": "ng/mL"},
      {"measurement": "concentration at 480 h", "setting": "[4]", "result": 25.3, "unit": "ng/mL"},
      {"measurement": "concentration at 576 h", "setting": "[5]", "result": 17.1, "unit": "ng/mL"},
      {"measurement": "concentration at 576 h", "setting": "[6]", "result": 22.2, "unit": "ng/mL"},
      {"measurement": "concentration at 576 h", "setting": "[1]", "result": 17.4, "unit": "ng/mL"},
      {"measurement": "concentration at 576 h", "setting": "[2]", "result": 16.1, "unit": "ng/mL"},
      {"measurement": "concentration at 576 h", "setting": "[3]", "result": 13.3, "unit": "ng/mL"},
      {"measurement": "concentration at 576 h", "setting": "[4]", "result": 17.3, "unit": "ng/mL"},
      {"measurement": "concentration at 672 h", "setting": "[5]", "result": 12.5, "unit": "ng/mL"},
      {"measurement": "concentration at 672 h", "setting": "[6]", "result": 16, "unit": "ng/mL"},
      {"measurement": "concentration at 672 h", "setting": "[1]", "result": 12.8, "unit": "ng/mL"},
      {"measurement": "concentration at 672 h", "setting": "[2]", "result": 12.8, "unit": "ng/mL"},
      {"measurement": "concentration at 672 h", "setting": "[3]", "result": 9.1, "unit": "ng/mL"},
      {"measurement": "concentration at 672 h", "setting": "[4]", "result": 16, "unit": "ng/mL"},
      {"measurement": "AUC(0-inf)", "setting": "n=6, read-out: AUC 0-inf, GeoMean", "result": 27900, "unit": "ng·h/mL"},
      {"measurement": "AUC(0-inf)", "setting": "n=6, read-out: AUC 0-inf, Mean", "result": 28100, "unit": "ng·h/mL"},
      {"measurement": "AUC(0-inf)", "setting": "n=6, read-out: AUC 0-inf, Median", "result": 28300, "unit": "ng·h/mL"},
      {"measurement": "AUC(0-t)", "setting": "n=6, read-out: AUC 0-t, GeoMean", "result": 23900, "unit": "ng·h/mL"},
      {"measurement": "AUC(0-t)", "setting": "n=6, read-out: AUC 0-t, Mean", "result": 23900, "unit": "ng·h/mL"},
      {"measurement": "AUC(0-t)", "setting": "n=6, read-out: AUC 0-t, Median", "result": 24000, "unit": "ng·h/mL"},
      {"measurement": "Cmax", "setting": "n=6, read-out: Cmax, GeoMean", "result": 84, "unit": "ng/mL"},
      {"measurement": "Cmax", "setting": "n=6, read-out: Cmax, Mean", "result": 84.4, "unit": "ng/mL"},
      {"measurement": "Cmax", "setting": "n=6, read-out: Cmax, Median", "result": 87, "unit": "ng/mL"},
      {"measurement": "half-life", "setting": "n=6, read-out: t½ (terminal half-life), Mean (converted)", "result": 217, "unit": "h"},
      {"measurement": "half-life", "setting": "n=6, read-out: t½, GeoMean (converted)", "result": 214, "unit": "h"},
      {"measurement": "half-life", "setting": "n=6, read-out: t½, Median (converted)", "result": 233, "unit": "h"},
      {"measurement": "AUC(0-inf)", "setting": "read-out: AUC 0-inf, individual animal", "result": 31000, "unit": "ng·h/mL"},
      {"measurement": "AUC(0-t)", "setting": "read-out: AUC 0-t, individual animal", "result": 25000, "unit": "ng·h/mL"},
      {"measurement": "Cmax", "setting": "read-out: Cmax, individual animal", "result": 71.8, "unit": "ng/mL"},
      {"measurement": "Cmax", "setting": "read-out: maximum concentration (Cmax), range", "result": "71.8 to 92.4", "unit": "ng/mL"},
      {"measurement": "half-life", "setting": "read-out: terminal half-life, range", "result": "155 to 261", "unit": "h"},
      {"measurement": "half-life", "setting": "read-out: t½, individual animal (converted)", "result": 261, "unit": "h"},
      {"measurement": "AUC 0-inf, individual animal", "result": "26895 ng·h/mL and 31726 ng·h/mL and 29670 ng·h/mL and 23684 ng·h/mL and 25369 ng·h/mL"},
      {"measurement": "AUC 0-t, individual animal", "result": "23395 ng·h/mL and 26334 ng·h/mL and 24538 ng·h/mL and 21644 ng·h/mL and 22612 ng·h/mL"},
      {"measurement": "AUC extrap, individual animal", "result": "19.5% and 13.0% and 17.0% and 17.3% and 8.6% and 10.9%"},
      {"measurement": "Cmax, individual animal", "result": "92.4 ng/mL and 89.4 ng/mL and 76.6 ng/mL and 91.6 ng/mL and 84.5 ng/mL"},
      {"measurement": "Lambda z, individual animal", "result": "0.0027 and 0.0030 (2×) and 0.0029 and 0.0045 and 0.0037"},
      {"measurement": "t½, individual animal", "result": "233.3 h and 233.6 h and 235.6 h and 155.2 h and 185.6 h"},
      {"measurement": "AUC 0-inf, Maximum", "setting": "n=6", "result": 31726, "unit": "ng·h/mL"},
      {"measurement": "AUC 0-inf, Minimum", "setting": "n=6", "result": 23684, "unit": "ng·h/mL"},
      {"measurement": "AUC 0-t, Maximum", "setting": "n=6", "result": 26334, "unit": "ng·h/mL"},
      {"measurement": "AUC 0-t, Minimum", "setting": "n=6", "result": 21644, "unit": "ng·h/mL"},
      {"measurement": "AUC extrap, GeoMean", "setting": "n=6", "result": 13.82, "unit": "%"},
      {"measurement": "AUC extrap, Maximum", "setting": "n=6", "result": 19.5, "unit": "%"},
      {"measurement": "AUC extrap, Mean", "setting": "n=6", "result": 14.38, "unit": "%"},
      {"measurement": "AUC extrap, Median", "setting": "n=6", "result": 15.00, "unit": "%"},
      {"measurement": "AUC extrap, Minimum", "setting": "n=6", "result": 8.6, "unit": "%"},
      {"measurement": "Cmax, Maximum", "setting": "n=6", "result": 92.4, "unit": "ng/mL"},
      {"measurement": "Lambda z, GeoMean", "setting": "n=6", "result": 0.00324, "unit": "h⁻¹"},
      {"measurement": "Lambda z, Maximum", "setting": "n=6", "result": 0.0045},
      {"measurement": "Lambda z, Mean", "setting": "n=6", "result": 0.00329, "unit": "h⁻¹"},
      {"measurement": "Lambda z, Median", "setting": "n=6", "result": 0.00297, "unit": "h⁻¹"},
      {"measurement": "Lambda z, Minimum", "setting": "n=6", "result": 0.0027, "unit": "h⁻¹"},
      {"measurement": "t½, Maximum", "setting": "n=6", "result": 261.4, "unit": "h"},
      {"measurement": "t½, Minimum", "setting": "n=6", "result": 155.2, "unit": "h"}
    ]}
  ]
}
